System: GluN2A NMDARs
Experiment: NMDAR EPSC in brain slices of wild-type and GluN2A knockout mice
Set-up: species or system mouse
Conditions: FIG. 20
Experimental: Male and female wild-type or GluN2A KO mice 20-25-day old were anesthetized using Isoflurane and rapidly decapitated. Brains were removed and immersed for 30 sec in cold (2-4° C.) cutting solution containing: 92 mM NMDG, 2.5 mM KCl, 1.25 mM NaH2PO4, 30 mM NaHCO3, 20 mM HEPES, 4.5 mM D-glucose, 5 mM Na-ascorbate, 3 mM Na-pyruvate, 0.5 mM CaCl2, and 10 mM MgCl2. The brain was blocked in melted 3% agar-A (CAS #9002-18-0, Bio Basic Canada Inc.), then glued onto the slicing platform and sectioned coronally at 320 μm thickness with a vibratome (Leica VT 1000S) containing cold (2-4° C.) bubbled (95% O2/5% CO2) cutting solution. Sections that included the prefrontal cortex were transferred into continuously carbogenated pre-warmed (32-34° C.) cutting solution for a period of 12 min time for initial recovery. […]
A brain slice was transferred onto a recording chamber on an upright Nikon FN1 microscope and the chamber was continuously perfused with 32° C. carbogenated aCSF recording solution containing: 121.85 mM NaCl, 2.5 mM KCl, 1.2 mM NaH2PO4, 24 mM NaHCO3, 12.5 mM D-glucose, 5 mM Na-ascorbate, 3 mM Na-pyruvate, 2 mM CaCl2, 0.1 mM MgCl2. Pyramidal neurons were identified in layer V of the prefrontal cortex via video monitored infra-red differential interference contrast illumination microscopy using a CFI APO 40× W NIR objective (0.80 numerical aperture, 3.5 mm working distance). […]

SMILES: CCOc1cc(Cl)c(Cl)c(/C=N/NC(=O)c2ccccc2Br)c1O [Npam43, (E)-2-bromo-N′-(2,3-dichloro-5-ethoxy-6-hydroxybenzylidene)benzohydrazide]
- Effect on NMDAR EPSC, GluN2A KO mice (brain slices of GluN2A KO mice): no effect
- Effect on NMDAR EPSC, WT mice (brain slices of wild-type mice): clear potentiation of NMDAR EPSC

Reference: US11166924B2, “N-methyl-d-aspartate receptor allosteric modulators and methods for their use” (Qingdao Primedicine Pharmaceutical Company, Ltd., priority 2016, dated 2021)
